Data taken from patent US20210156844A1, “TMEM16A Modulation for Diagnostic or Therapeutic Use in Pulmonary Hypertension (PH)” (Bayer Aktiengesellschaft, priority 2017, published 2021).

Tests used:
[1] = system: U-46619 preconstricted isolated mouse PA; experiment: Measurement of pulmonary artery tone ex vivo
Experimental: Pulmonary artery rings were isolated from male C57BL/6J mice (20-25 weeks old, Charles River, Wilmington Mass., USA), as described by Jain et al. (Jain, P P, et al., Int. J. Nanomedicine (2014) 9, 3249-3261). Following stable contraction (approx. 30 minutes post-addition of U-46619, 30 nM), the arteries were subjected to cumulatively increasing concentrations (0.1 to 30 μM) of the TMEM6A blockers T16Ainh-A01 (Tocris) and benzbromarone (Sigma) in order to analyze the concentration-response relationships.

hypoxia-exposed mice = experiment: Chronic hypoxia-induced mouse model of PH, slow-release pellets; format: in vivo
Excerpt: The experimental protocol is depicted in FIG. 12A. Male C57BL/6J mice (Charles River) at the age of 10 weeks were either placed into a hypoxic chamber (FiO2=0.1, n=16) for 4 weeks, or kept at normoxic conditions (control group, FiO2=0.21, n=8). According to the reports of Fagan et al. (Fagan, K A, et al. Am. J. Physiol. Lung Cell. Mol. Physiol. (2004) 287, L656-664) and Tuscherer et al. (Tuchscherer, H A, et al., J. Biomech. (2007) 40, 993-1001), a significant increase in the right ventricular systolic pressure (RVSP) and PA muscularization can be observed already after 14 days of hypoxia exposure. Therefore, mice subjected to hypoxia were randomized into two groups at the end of the second week. Eight mice received a subcutaneous slow-release pellet containing benzbromarone (Innovative Research of America, Sarasota Fla., USA) (HOX+BBR) and the other 8 mice received pellets with vehicle (HOX+Veh). The pellets ensured a stable blood concentration of the drug/vehicle over the next two weeks. At the end of week 4, all mice were subjected to in vivo hemodynamic measurements, followed by sacrifice and organ collection.
In mice, in vivo hemodynamics was performed under constant inhalation of 2% isoflurane/oxygen, using the closed chest technique through a small incision on the submandibular area. Body temperature was monitored and maintained at 37±1° C. A limb-lead ECG was recorded and the heart rate was kept constant to avoid changes in the sympathetic tone during the experiment. The right ventricle (RV) was catheterized via the right jugular vein using a 1.4 F Millar catheter (SPR-671, Millar, Houston Tex., USA) and right ventricular systolic pressure (RVSP) was measured continuously. Another catheter was inserted into the left carotid artery to monitor systemic blood pressure. After recording of stable values, the experiment was either continued with the assessment of the acute hemodynamic effects of benzbromarone (described above), or mice were sacrificed immediately for organ collection. […]
At the end of the hemodynamic measurements, animals were exsanguinated and the heart and lungs were isolated. […] Right ventricular hypertrophy was assessed by calculating the Fulton index, defined as RV weight/(LV+S weight).
Paraffin-embedded mouse and rat lung tissues were cut to 2 μm thin sections. Double immunohistochemical staining and quantification of the non-muscularized and muscularized arteries were made as previously described (Crnkovic, S, et al., Respir. Physiol. Neurobiol. (2011) 179, 342-345). […] Vessel remodeling in lung sections was quantified using semi-automated image analysis software (Visiopharm, Hoersholm, Denmark). […] The percentage of non-muscularized and muscularized pulmonary arteries, relative to the total number of pulmonary arteries, was calculated. […]

[2] = Solubility (comparative remark); format: physicochemical
[3] = subcutaneous slow-release pellet weeks 2-4 of 4 weeks hypoxia, vs HOX+Veh

CCc1oc2ccccc2c1C(=O)c1cc(Br)c(O)c(Br)c1 [benzbromarone, (2-Ethyl-3-benzofuranyl)-(3,5-dibrom-4-hydroxyphenyl)ketone]
vasorelaxation of preconstricted PA ([1]; cumulatively increasing concentrations 0.1 to 30 μM, U-46619 30 nM): dose-dependent vasorelaxation
potency compared with T16Ainh-A01 ([1]; ex vivo PA vasodilator response): more potent
PCNA positive nuclei in the medial layer of the PA (hypoxia-exposed mice; hypoxic mice, lung sections (not shown)): reduced number
hypoxia-induced muscularization of pulmonary arteries (hypoxia-exposed mice; ratio of fully vs non-muscularised arteries compared to HOX+Veh): reversed
Fulton index (hypoxia-exposed mice; [3]): lowered
RVSP (hypoxia-exposed mice; [3]): lowered
solubility compared with T16Ainh-A01 [2]: better soluble
